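Cells were grown in 96-well plates and exposed to each compound for 48 hours at five concentrations; endpoints were interpolated linearly between bracketing concentrations, or set to the highest concentration if not reached. TGI: total growth inhibition.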
What was measured:
Assay in all cases: NCI tumour cell line growth inhibition, 48 h
EKVX NSCLC = test system: EKVX NSCLC
SNB-75 CNS = test system: SNB-75 CNS
XF 498 CNS = test system: XF 498 CNS
OVCAR-5 ovarian = test system: OVCAR-5 ovarian
SNB-19 CNS = test system: SNB-19 CNS
CAKI-1 renal = test system: CAKI-1 renal
SK-MEL-2 melanoma = test system: SK-MEL-2 melanoma
K-562 leukemia = test system: K-562 leukemia
A549 NSCLC = test system: A549 NSCLC
NCI-H23 lung = test system: NCI-H23 lung
HOP-18 NSCLC = test system: HOP-18 NSCLC
RXF 393 renal = test system: RXF 393 renal
COLO 205 colon = test system: COLO 205 colon
SK-OV-3 ovarian = test system: SK-OV-3 ovarian
OVCAR-4 ovarian = test system: OVCAR-4 ovarian
HCC-2998 colon = test system: HCC-2998 colon
MCF7 breast = test system: MCF7 breast
HOP-62 NSCLC = test system: HOP-62 NSCLC
NCI-H522 lung = test system: NCI-H522 lung
A498 renal = test system: A498 renal
DLD-1 colon = test system: DLD-1 colon
SN12C renal = test system: SN12C renal
HL-60(TB) leukemia = test system: HL-60(TB) leukemia
SN12K1 renal = test system: SN12K1 renal
HCT-116 colon = test system: HCT-116 colon
P388 leukemia = test system: P388 leukemia
NCI/ADR-RES ovarian = test system: NCI/ADR-RES ovarian
RPMI-8226 leukemia = test system: RPMI-8226 leukemia
NCI-H226 lung = test system: NCI-H226 lung
NCI-H460 lung = test system: NCI-H460 lung
DMS 273 small cell lung = test system: DMS 273 small cell lung
IGROV1 ovarian = test system: IGROV1 ovarian
SK-MEL-28 melanoma = test system: SK-MEL-28 melanoma
UACC-62 melanoma = test system: UACC-62 melanoma
UACC-257 melanoma = test system: UACC-257 melanoma
HT29 colon = test system: HT29 colon
HOP-92 NSCLC = test system: HOP-92 NSCLC
OVCAR-3 ovarian = test system: OVCAR-3 ovarian
M19-MEL melanoma = test system: M19-MEL melanoma
LOX IMVI melanoma = test system: LOX IMVI melanoma
MOLT-4 leukemia = test system: MOLT-4 leukemia
KM20L2 colon = test system: KM20L2 colon
SK-MEL-5 melanoma = test system: SK-MEL-5 melanoma
DMS 114 small cell lung = test system: DMS 114 small cell lung
MALME-3M melanoma = test system: MALME-3M melanoma
CCRF-CEM leukemia = test system: CCRF-CEM leukemia
SF-268 CNS = test system: SF-268 CNS
HCT-15 colon = test system: HCT-15 colon
P388/ADR leukemia = test system: P388/ADR leukemia
SW-620 colon = test system: SW-620 colon
U251 CNS = test system: U251 CNS
UO-31 renal = test system: UO-31 renal
SF-295 CNS = test system: SF-295 CNS
SNB-78 CNS = test system: SNB-78 CNS
KM12 colon = test system: KM12 colon
OVCAR-8 ovarian = test system: OVCAR-8 ovarian

Which results are given for `COc1ccc(C2C3CCCC(C3=O)C(c3ccc(OC)cc3)N2N=O)cc1` (stereo unspecified)?
TGI (EKVX NSCLC): 99.6 µM; TGI (SNB-75 CNS): 62.4 µM; TGI (XF 498 CNS): 72.4 µM; TGI (OVCAR-5 ovarian): > 100 µM; TGI (SNB-19 CNS): > 91.2 µM; TGI (CAKI-1 renal): > 100 µM; TGI (SK-MEL-2 melanoma): 45.1 µM; TGI (K-562 leukemia): > 66 µM; TGI (A549 NSCLC): > 88.2 µM; TGI (NCI-H23 lung): 44.5 µM; TGI (HOP-18 NSCLC): 31 µM; TGI (RXF 393 renal): 41.1 µM; TGI (COLO 205 colon): 42.3 µM; TGI (SK-OV-3 ovarian): > 87.6 µM; TGI (OVCAR-4 ovarian): 45 µM; TGI (HCC-2998 colon): 59.6 µM; TGI (MCF7 breast): 38.2 µM; TGI (HOP-62 NSCLC): > 86.5 µM; TGI (NCI-H522 lung): 34.6 µM; TGI (A498 renal): 25.4 µM; TGI (DLD-1 colon): > 100 µM; TGI (SN12C renal): 39.2 µM; TGI (HL-60(TB) leukemia): > 64 µM; TGI (SN12K1 renal): > 79.6 µM; TGI (HCT-116 colon): > 74.9 µM; TGI (P388 leukemia): 42.9 µM; TGI (NCI/ADR-RES ovarian): > 87.2 µM; TGI (RPMI-8226 leukemia): 47.8 µM; TGI (NCI-H226 lung): 61.6 µM; TGI (NCI-H460 lung): 42.2 µM; TGI (DMS 273 small cell lung): 43.6 µM; TGI (IGROV1 ovarian): 97.5 µM; TGI (SK-MEL-28 melanoma): > 100 µM; TGI (UACC-62 melanoma): 97.4 µM; TGI (UACC-257 melanoma): 82.7 µM; TGI (HT29 colon): 51.2 µM; TGI (HOP-92 NSCLC): > 100 µM; TGI (OVCAR-3 ovarian): 20 µM; TGI (M19-MEL melanoma): 99.2 µM; TGI (LOX IMVI melanoma): 32.5 µM; TGI (MOLT-4 leukemia): > 61.6 µM; TGI (KM20L2 colon): > 100 µM; TGI (SK-MEL-5 melanoma): 32.4 µM; TGI (DMS 114 small cell lung): 47.9 µM; TGI (MALME-3M melanoma): 20 µM; TGI (CCRF-CEM leukemia): > 70.7 µM; TGI (SF-268 CNS): > 100 µM; TGI (HCT-15 colon): > 100 µM; TGI (P388/ADR leukemia): 38.3 µM; TGI (SW-620 colon): > 100 µM; TGI (U251 CNS): > 100 µM; TGI (UO-31 renal): > 100 µM; TGI (SF-295 CNS): 45.8 µM; TGI (SNB-78 CNS): > 100 µM; TGI (KM12 colon): > 74.1 µM; TGI (OVCAR-8 ovarian): > 100 µM

How did the TGI (EKVX NSCLC) turn out when `COc1cc(C2c3cc4c(cc3[C@@H](Oc3ccc(F)cc3)C3COC(=O)[C@H]23)OCO4)cc(OC)c1O` (stereo partly specified) was run?
The TGI was greater than 100 µM.

And the TGI (OVCAR-5 ovarian)?
Its TGI is greater than 100 µM.

And the TGI (CAKI-1 renal)?
The TGI was 14.5 µM.

And the TGI (SK-MEL-2 melanoma)?
The TGI was greater than 100 µM.

And the TGI (K-562 leukemia)?
The TGI was 30.4 µM.

What about the TGI (A549 NSCLC) of the same molecule?
Its TGI is greater than 100 µM.

What about the TGI (NCI-H23 lung) of the same molecule?
Its TGI is greater than 100 µM.

And the TGI (HOP-18 NSCLC)?
The TGI was greater than 100 µM.

What about the TGI (COLO 205 colon) of the same molecule?
The TGI was 4.86 µM.

What about the TGI (OVCAR-4 ovarian) of the same molecule?
The TGI was greater than 100 µM.

What about the TGI (HCC-2998 colon) of the same molecule?
The TGI was greater than 100 µM.

And the TGI (MCF7 breast)?
The TGI was greater than 58 µM.

What about the TGI (HOP-62 NSCLC) of the same molecule?
Its TGI is 0.95 µM.

And the TGI (NCI-H522 lung)?
The TGI was greater than 100 µM.

And the TGI (DLD-1 colon)?
Its TGI is greater than 100 µM.

What about the TGI (SN12C renal) of the same molecule?
The TGI was greater than 100 µM.

And the TGI (HL-60(TB) leukemia)?
Its TGI is 1.06 µM.

And the TGI (SN12K1 renal)?
The TGI was greater than 100 µM.

What about the TGI (HCT-116 colon) of the same molecule?
The TGI was greater than 100 µM.

What about the TGI (P388 leukemia) of the same molecule?
Its TGI is greater than 21.2 µM.

And the TGI (RPMI-8226 leukemia)?
Its TGI is 6.64 µM.

And the TGI (NCI-H460 lung)?
The TGI was 25.4 µM.

And the TGI (DMS 273 small cell lung)?
The TGI was 47.2 µM.

And the TGI (IGROV1 ovarian)?
The TGI was greater than 100 µM.

What about the TGI (SK-MEL-28 melanoma) of the same molecule?
Its TGI is greater than 100 µM.

What about the TGI (UACC-62 melanoma) of the same molecule?
The TGI was greater than 100 µM.

And the TGI (UACC-257 melanoma)?
The TGI was 22.8 µM.

And the TGI (HT29 colon)?
Its TGI is 20 µM.

What about the TGI (HOP-92 NSCLC) of the same molecule?
The TGI was greater than 100 µM.

And the TGI (OVCAR-3 ovarian)?
The TGI was 72.3 µM.

And the TGI (M19-MEL melanoma)?
Its TGI is 40.4 µM.

And the TGI (LOX IMVI melanoma)?
The TGI was greater than 100 µM.

What about the TGI (MOLT-4 leukemia) of the same molecule?
Its TGI is 4.66 µM.

What about the TGI (KM20L2 colon) of the same molecule?
Its TGI is greater than 100 µM.

What about the TGI (SK-MEL-5 melanoma) of the same molecule?
The TGI was 10.9 µM.

What about the TGI (MALME-3M melanoma) of the same molecule?
Its TGI is 31.8 µM.

What about the TGI (CCRF-CEM leukemia) of the same molecule?
Its TGI is greater than 23.2 µM.

And the TGI (SF-268 CNS)?
Its TGI is greater than 100 µM.

What about the TGI (HCT-15 colon) of the same molecule?
The TGI was greater than 100 µM.

And the TGI (SW-620 colon)?
Its TGI is greater than 100 µM.

And the TGI (U251 CNS)?
The TGI was greater than 100 µM.

What about the TGI (UO-31 renal) of the same molecule?
Its TGI is greater than 100 µM.

What about the TGI (SF-295 CNS) of the same molecule?
The TGI was greater than 60 µM.

What about the TGI (KM12 colon) of the same molecule?
Its TGI is 27.9 µM.

What about the TGI (OVCAR-8 ovarian) of the same molecule?
Its TGI is greater than 100 µM.
